Assay results from ChEMBL document CHEMBL1147701, “Novel 4-anilinoquinazolines with C-6 carbon-linked side chains: synthesis and structure-activity relationship of a series of potent, orally active, EGF receptor tyrosine kinase inhibitors” (Bioorg Med Chem Lett, 2006).

Tests used:
[1] = target: Vascular endothelial growth factor receptor 2 (Homo sapiens, UniProt P35968)
[2] = target: T1, Serine/threonine-protein kinase Chk1 (Homo sapiens, UniProt O14757); assay: Inhibition of CHK1
T1 sequence (O14757 whole entry): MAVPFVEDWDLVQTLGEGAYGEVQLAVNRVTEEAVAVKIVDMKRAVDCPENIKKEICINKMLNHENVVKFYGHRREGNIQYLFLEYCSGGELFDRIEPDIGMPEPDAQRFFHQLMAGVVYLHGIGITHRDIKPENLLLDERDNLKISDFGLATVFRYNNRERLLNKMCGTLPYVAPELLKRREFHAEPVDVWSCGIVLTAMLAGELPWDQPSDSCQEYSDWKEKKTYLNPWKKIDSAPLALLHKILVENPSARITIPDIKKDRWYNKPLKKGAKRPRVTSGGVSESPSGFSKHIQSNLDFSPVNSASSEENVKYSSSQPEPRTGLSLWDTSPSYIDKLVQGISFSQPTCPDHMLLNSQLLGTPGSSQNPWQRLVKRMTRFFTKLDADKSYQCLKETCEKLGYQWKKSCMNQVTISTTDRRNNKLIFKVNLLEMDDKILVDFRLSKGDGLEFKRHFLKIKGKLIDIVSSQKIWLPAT

[3] = target: Glycogen synthase kinase-3 beta (Homo sapiens, UniProt P49841); assay: Inhibition of GSK3-beta
[4] = target: Proto-oncogene tyrosine-protein kinase Src (Homo sapiens, UniProt P12931); assay: Inhibition of Src
[5] = target: T2, Serine/threonine-protein kinase Sgk1 (Homo sapiens, UniProt O00141); assay: Inhibition of SGK
T2 sequence (O00141 whole entry): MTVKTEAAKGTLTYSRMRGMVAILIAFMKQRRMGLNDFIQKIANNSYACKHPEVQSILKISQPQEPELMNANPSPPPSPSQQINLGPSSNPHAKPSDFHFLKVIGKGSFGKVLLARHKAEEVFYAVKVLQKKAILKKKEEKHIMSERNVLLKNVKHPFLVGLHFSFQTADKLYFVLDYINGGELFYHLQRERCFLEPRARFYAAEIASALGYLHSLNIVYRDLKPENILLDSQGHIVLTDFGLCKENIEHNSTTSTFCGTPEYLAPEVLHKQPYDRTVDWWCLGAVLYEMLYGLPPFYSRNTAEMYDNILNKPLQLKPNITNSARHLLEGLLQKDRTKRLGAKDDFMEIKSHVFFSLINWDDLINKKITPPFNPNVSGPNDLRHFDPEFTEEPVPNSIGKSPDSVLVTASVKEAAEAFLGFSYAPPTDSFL

[6] = target: Mitogen-activated protein kinase 1 (Homo sapiens, UniProt P28482); assay: Inhibition of MAPK
[7] = target: AMP-activated protein kinase, AMPK; assay: Inhibition of AMPK; type: protein-complex assay
[8] = target: Rho-associated protein kinase 2 (Homo sapiens, UniProt O75116); assay: Inhibition of ROCK2
[9] = target: c-Jun N-terminal kinase, JNK (Homo sapiens, UniProt P45983+P53779+P45984); assay: Inhibition of JNK; type: protein assay
[10] = target: Tyrosine-protein kinase Lck (Homo sapiens, UniProt P06239)
[11] = target: cAMP-dependent protein kinase (PKA) (Homo sapiens, UniProt P22694+P17612+P22612); assay: Inhibition of PKA; type: protein assay
MAP kinase p38 = MAP kinase p38 (Homo sapiens, UniProt O15264+Q15759+Q16539+P53778)
[12] = Inhibition of CDK

Tyrosine-protein kinase Lck, sequence (P06239 whole entry): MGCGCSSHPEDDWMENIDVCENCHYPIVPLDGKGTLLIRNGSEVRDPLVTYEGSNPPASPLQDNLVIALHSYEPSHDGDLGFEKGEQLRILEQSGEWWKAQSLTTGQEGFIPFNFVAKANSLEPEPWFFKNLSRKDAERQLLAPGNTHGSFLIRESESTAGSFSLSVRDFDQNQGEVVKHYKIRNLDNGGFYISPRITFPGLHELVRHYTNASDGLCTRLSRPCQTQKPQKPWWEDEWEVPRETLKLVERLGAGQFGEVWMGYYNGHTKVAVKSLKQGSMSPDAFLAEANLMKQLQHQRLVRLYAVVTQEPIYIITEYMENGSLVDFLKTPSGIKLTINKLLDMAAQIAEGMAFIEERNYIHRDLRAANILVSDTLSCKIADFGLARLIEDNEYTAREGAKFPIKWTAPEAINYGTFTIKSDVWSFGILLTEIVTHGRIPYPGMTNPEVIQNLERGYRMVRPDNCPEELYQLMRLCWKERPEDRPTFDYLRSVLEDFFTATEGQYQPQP
Glycogen synthase kinase-3 beta, sequence (P49841 whole entry): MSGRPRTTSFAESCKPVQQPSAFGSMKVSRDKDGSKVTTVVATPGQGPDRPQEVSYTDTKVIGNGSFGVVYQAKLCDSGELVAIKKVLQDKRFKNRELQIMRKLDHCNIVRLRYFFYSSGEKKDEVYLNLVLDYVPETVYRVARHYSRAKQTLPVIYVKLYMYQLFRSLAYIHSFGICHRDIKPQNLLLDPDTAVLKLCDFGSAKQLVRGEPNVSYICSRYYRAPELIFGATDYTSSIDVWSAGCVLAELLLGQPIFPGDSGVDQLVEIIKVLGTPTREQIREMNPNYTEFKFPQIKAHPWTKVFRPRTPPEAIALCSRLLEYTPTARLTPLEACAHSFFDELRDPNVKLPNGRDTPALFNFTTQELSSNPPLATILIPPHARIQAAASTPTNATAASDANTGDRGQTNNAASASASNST
Vascular endothelial growth factor receptor 2, sequence (P35968 whole entry): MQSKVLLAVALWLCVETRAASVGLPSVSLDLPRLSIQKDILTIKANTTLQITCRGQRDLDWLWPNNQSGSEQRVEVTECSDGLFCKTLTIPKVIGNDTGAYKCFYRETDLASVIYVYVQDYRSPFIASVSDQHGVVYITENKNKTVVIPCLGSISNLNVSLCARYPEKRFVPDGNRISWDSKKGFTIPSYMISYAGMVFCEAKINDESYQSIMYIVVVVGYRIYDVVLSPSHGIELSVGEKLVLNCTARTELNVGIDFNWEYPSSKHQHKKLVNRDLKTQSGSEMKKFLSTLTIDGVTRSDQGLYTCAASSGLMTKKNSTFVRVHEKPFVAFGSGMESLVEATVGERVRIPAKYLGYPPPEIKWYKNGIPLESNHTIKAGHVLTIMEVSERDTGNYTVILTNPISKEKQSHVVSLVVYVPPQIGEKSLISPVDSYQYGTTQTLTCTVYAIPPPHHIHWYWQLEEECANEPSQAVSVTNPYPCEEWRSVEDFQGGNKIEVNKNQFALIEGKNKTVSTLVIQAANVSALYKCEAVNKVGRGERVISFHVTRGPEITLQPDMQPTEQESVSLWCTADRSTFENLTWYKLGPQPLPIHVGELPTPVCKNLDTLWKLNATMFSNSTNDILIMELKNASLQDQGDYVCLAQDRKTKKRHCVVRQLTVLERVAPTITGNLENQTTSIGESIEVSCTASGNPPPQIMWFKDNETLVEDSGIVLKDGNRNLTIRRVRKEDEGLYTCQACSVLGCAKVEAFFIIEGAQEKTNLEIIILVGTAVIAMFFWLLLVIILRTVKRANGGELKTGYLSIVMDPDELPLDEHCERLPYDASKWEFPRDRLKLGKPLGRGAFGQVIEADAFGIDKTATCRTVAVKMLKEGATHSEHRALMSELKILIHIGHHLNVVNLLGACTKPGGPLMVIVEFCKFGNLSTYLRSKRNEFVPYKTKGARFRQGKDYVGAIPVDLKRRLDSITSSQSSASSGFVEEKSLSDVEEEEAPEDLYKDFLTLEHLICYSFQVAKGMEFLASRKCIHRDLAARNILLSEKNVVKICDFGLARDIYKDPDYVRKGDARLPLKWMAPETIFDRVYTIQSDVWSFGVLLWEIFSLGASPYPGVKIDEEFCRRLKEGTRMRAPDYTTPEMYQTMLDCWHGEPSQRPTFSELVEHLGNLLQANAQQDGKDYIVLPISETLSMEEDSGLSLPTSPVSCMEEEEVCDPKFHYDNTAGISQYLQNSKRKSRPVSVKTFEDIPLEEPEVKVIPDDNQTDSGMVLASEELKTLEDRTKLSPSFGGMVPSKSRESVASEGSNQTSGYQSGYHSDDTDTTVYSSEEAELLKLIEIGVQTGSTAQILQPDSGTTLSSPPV
Mitogen-activated protein kinase 1, sequence (P28482 whole entry): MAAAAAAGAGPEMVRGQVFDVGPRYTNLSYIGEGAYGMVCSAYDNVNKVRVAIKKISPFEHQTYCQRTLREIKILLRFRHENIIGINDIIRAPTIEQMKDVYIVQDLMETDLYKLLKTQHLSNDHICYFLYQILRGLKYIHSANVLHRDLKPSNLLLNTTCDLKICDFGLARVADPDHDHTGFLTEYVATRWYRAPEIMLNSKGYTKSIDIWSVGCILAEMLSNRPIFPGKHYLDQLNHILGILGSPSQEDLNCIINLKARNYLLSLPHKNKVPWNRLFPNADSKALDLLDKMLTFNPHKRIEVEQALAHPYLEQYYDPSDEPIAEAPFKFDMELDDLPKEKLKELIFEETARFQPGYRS
Proto-oncogene tyrosine-protein kinase Src, sequence (P12931 2-536 limits assumed): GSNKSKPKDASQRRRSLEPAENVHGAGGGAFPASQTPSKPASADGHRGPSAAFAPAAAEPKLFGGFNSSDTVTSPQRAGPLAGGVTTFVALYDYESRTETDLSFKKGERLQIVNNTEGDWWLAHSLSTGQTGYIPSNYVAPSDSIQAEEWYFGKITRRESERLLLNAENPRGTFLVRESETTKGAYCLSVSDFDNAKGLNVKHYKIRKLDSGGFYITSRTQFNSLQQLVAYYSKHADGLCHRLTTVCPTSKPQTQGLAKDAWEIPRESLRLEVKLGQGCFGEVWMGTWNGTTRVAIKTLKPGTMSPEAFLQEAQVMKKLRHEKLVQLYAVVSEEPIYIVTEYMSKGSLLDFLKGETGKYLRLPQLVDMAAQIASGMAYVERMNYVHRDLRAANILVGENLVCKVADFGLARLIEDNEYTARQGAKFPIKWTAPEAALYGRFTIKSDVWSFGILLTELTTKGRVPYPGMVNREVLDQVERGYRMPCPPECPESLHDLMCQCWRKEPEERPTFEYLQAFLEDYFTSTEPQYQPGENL
Rho-associated protein kinase 2, sequence (O75116 whole entry): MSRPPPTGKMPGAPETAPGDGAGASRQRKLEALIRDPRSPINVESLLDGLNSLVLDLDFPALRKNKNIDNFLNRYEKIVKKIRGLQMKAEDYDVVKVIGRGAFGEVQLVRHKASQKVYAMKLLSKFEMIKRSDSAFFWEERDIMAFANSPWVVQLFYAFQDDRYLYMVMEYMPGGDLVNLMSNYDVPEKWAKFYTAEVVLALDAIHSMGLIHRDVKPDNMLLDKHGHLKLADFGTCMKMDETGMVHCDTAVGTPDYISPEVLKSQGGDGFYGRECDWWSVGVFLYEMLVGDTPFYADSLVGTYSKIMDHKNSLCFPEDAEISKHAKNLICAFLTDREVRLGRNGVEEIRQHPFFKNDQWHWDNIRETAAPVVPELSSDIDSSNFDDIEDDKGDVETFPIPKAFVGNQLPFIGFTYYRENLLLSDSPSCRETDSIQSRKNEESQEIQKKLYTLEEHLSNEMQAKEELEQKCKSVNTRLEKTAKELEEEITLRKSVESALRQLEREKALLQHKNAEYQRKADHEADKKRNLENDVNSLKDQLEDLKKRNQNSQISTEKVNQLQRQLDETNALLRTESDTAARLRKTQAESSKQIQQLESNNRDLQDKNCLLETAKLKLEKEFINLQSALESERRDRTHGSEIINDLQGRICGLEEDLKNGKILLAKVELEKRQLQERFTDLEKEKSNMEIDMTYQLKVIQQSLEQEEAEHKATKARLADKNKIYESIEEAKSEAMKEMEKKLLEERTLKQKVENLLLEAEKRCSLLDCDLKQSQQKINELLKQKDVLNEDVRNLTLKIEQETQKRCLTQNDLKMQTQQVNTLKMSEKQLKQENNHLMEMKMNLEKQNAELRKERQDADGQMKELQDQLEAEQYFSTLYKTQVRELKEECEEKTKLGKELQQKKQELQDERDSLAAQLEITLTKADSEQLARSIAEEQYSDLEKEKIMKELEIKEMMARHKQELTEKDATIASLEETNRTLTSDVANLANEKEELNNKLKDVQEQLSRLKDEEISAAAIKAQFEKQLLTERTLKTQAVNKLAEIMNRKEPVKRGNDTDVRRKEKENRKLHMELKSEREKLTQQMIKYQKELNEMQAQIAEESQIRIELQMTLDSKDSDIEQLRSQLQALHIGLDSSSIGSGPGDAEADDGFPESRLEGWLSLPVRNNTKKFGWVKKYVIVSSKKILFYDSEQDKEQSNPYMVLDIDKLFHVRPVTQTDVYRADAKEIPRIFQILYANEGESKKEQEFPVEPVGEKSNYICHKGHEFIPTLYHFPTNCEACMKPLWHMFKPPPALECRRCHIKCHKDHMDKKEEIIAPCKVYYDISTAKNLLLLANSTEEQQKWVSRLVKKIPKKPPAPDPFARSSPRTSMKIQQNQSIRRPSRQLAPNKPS

SMILES | IC50 [1] [µM] | IC50 [2] [µM] | IC50 [3] [µM] | IC50 [4] [µM] | IC50 [5] [µM] | IC50 [6] [µM] | IC50 [7] [µM] | IC50 [8] [µM] | IC50 [9] [µM] | IC50 [10] [µM] | IC50 [11] [µM] | IC50 (MAP kinase p38) [µM] | IC50 [12] [µM]
COc1cc2ncnc(Nc3cccc(Cl)c3F)c2cc1CN1CCC[C@@H]1C(N)=O | > 10 | > 10 | > 10 | > 10 | > 10 | > 10 | > 10 | > 10 | > 10 | > 10 | > 10 | – | > 10
COc1cc2ncnc(Nc3cccc(Cl)c3F)c2cc1CN1CCC[C@H]1CC(N)=O | > 10 | > 10 | > 10 | > 10 | > 10 | > 10 | > 10 | > 10 | > 10 | > 10 | > 10 | > 10 | > 10
COc1cc2ncnc(Nc3cccc(Cl)c3F)c2cc1CN1CCCC[C@@H]1C(N)=O | > 10 | > 10 | > 10 | > 10 | > 10 | > 10 | > 10 | > 10 | > 10 | > 10 | > 10 | > 10 | > 10
CNC(=O)[C@H]1CCCN1Cc1cc2c(Nc3cccc(Cl)c3F)ncnc2cc1OC | > 10 | > 10 | > 10 | > 10 | > 10 | > 10 | > 10 | > 10 | > 10 | – | > 10 | > 10 | –
COc1cc2ncnc(Nc3cccc(Cl)c3F)c2cc1CN(C)[C@@H](CN(C)C)C(N)=O | > 10 | > 10 | > 10 | > 10 | > 10 | > 10 | > 10 | > 10 | > 10 | > 10 | > 10 | > 10 | > 10
COc1cc2ncnc(Nc3cccc(Cl)c3F)c2cc1CN1CC(C(N)=O)C1 | > 10 | > 10 | > 10 | > 10 | > 10 | > 10 | > 10 | > 10 | > 10 | – | > 10 | – | –
COCCN(Cc1cc2c(Nc3cccc(Cl)c3F)ncnc2cc1OC)[C@@H](C)C(N)=O | > 10 | > 10 | > 10 | > 10 | > 10 | > 10 | > 10 | > 10 | > 10 | > 10 | > 10 | – | –
COc1cc2ncnc(Nc3cccc(Cl)c3F)c2cc1CN1C[C@H](OC)C[C@@H]1C(N)=O | > 10 | > 10 | > 10 | > 10 | > 10 | > 10 | > 10 | > 10 | > 10 | – | – | – | –
COc1cc2ncnc(Nc3cccc(Cl)c3F)c2cc1CN(CCN(C)C)[C@@H](C)C(N)=O | > 10 | > 10 | > 10 | > 10 | > 10 | > 10 | > 10 | > 10 | > 10 | > 10 | > 10 | – | –
COC[C@@H](C(N)=O)N(C)Cc1cc2c(Nc3cccc(Cl)c3F)ncnc2cc1OC | > 10 | > 10 | > 10 | > 10 | > 10 | > 10 | > 10 | > 10 | > 10 | – | > 10 | > 10 | –
COc1cc2ncnc(Nc3cccc(Cl)c3F)c2cc1CN1CCN(C)CC1C(N)=O (configuration not stated) | > 10 | > 10 | > 10 | > 10 | > 10 | > 10 | > 10 | > 10 | > 10 | – | > 10 | > 10 | –
COc1cc2ncnc(Nc3cccc(Cl)c3F)c2cc1CN1CCC1C(N)=O (configuration not stated) | > 10 | > 10 | > 10 | > 10 | > 10 | > 10 | > 10 | > 10 | > 10 | – | > 10 | > 10 | –
COc1cc2ncnc(Nc3cccc(Cl)c3F)c2cc1CN(C)[C@H](C)C(=O)N(C)C | > 10 | > 10 | > 10 | > 10 | > 10 | > 10 | > 10 | > 10 | > 10 | – | > 10 | – | –
COc1cc2ncnc(Nc3cccc(Cl)c3F)c2cc1CN(C)C1CCNC1=O (configuration not stated) | > 10 | > 10 | > 10 | > 10 | > 10 | > 10 | > 10 | > 10 | > 10 | – | > 10 | > 10 | –
COc1cc2ncnc(Nc3ccc(F)c(Cl)c3)c2cc1CN1CCC[C@H]1C(N)=O | > 10 | > 10 | > 10 | > 10 | > 10 | > 10 | > 10 | > 10 | > 10 | – | > 10 | > 10 | > 10

Now from value to compound:

IC50 [1] [µM] | IC50 [2] [µM] | IC50 [3] [µM] | IC50 [4] [µM] | IC50 [5] [µM] | IC50 [6] [µM] | IC50 [7] [µM] | IC50 [8] [µM] | IC50 [9] [µM] | IC50 [10] [µM] | IC50 [11] [µM] | IC50 (MAP kinase p38) [µM] | IC50 [12] [µM] | SMILES
> 10 | > 10 | > 10 | > 10 | > 10 | > 10 | > 10 | > 10 | > 10 | > 10 | – | – | – | COc1cc2ncnc(Nc3cccc(Cl)c3F)c2cc1CN1CC[C@H](C(N)=O)C1
> 10 | > 10 | > 10 | > 10 | > 10 | > 10 | > 10 | > 10 | > 10 | – | > 10 | > 10 | > 10 | COc1cc2ncnc(Nc3ccc(F)c(Cl)c3)c2cc1CN1CCC[C@@H]1C(N)=O
> 10 | > 10 | > 10 | > 10 | > 10 | > 10 | > 10 | > 10 | > 10 | – | > 10 | > 10 | – | COc1cc2ncnc(Nc3cccc(Cl)c3F)c2cc1CN(C)[C@@H](CO)C(N)=O
> 10 | > 10 | > 10 | > 10 | > 10 | > 10 | > 10 | > 10 | > 10 | > 10 | > 10 | – | – | COc1cc2ncnc(Nc3cccc(Cl)c3F)c2cc1CN1CCOCC1C(N)=O (configuration not stated)
> 10 | > 10 | > 10 | > 10 | > 10 | > 10 | > 10 | > 10 | > 10 | > 10 | > 10 | > 10 | > 10 | COCC[C@@H](C(N)=O)N(C)Cc1cc2c(Nc3cccc(Cl)c3F)ncnc2cc1OC
> 10 | > 10 | > 10 | > 10 | > 10 | > 10 | > 10 | > 10 | > 10 | > 10 | > 10 | – | – | COc1cc2ncnc(Nc3cccc(Cl)c3F)c2cc1CN1CCCC1
> 10 | > 10 | > 10 | > 10 | > 10 | > 10 | > 10 | > 10 | > 10 | – | > 10 | – | – | COc1cc2ncnc(Nc3cccc(Cl)c3F)c2cc1CN1CCC[C@@H]1C(=O)N(C)C
